# Test results from patent publication US20250326708A1, “LONG-ACTING SPLEEN-TARGETING CATIONIC LIPID COMPOUND COMPRISING BENZENE RING STRUCTURE, COMPOSITION COMPRISING SAME, AND USE THEREOF” (Beijing Youcarekechuang Pharmaceutical Technology Co., Ltd., priority 2024, published 2025).
# Where “and” joins values, the source holds several entries; their conditions need not be identical. Equal values may be shown once.
# Legend:
# [1] = Particle size and polydispersity index (PDI) of lipid nanoparticles, dynamic light scattering; format: physicochemical; conditions: LNP preparation with the named cationic lipid; 90° scattering angle, 25° C
# Source text: (§1) The cationic lipids listed in Table 2 were each mixed with DSPC (AVT (Shanghai) Pharmaceutical Technology Co., Ltd.), cholesterol (AVT (Shanghai) Pharmaceutical Technology Co., Ltd.), and DMG-PEG2000 in a molar ratio of 49:10:39.5:1.5 and dissolved in ethanol to prepare ethanol lipid solutions. Using the ethanol injection method, the ethanol lipid solutions were quickly added to a citrate buffer (pH between 4 and 5), and vortexed for 30 seconds for later use. eGFP-mRNA (purchased from Shanghai BioHub Biotechnology Co., Ltd.), Fluc-mRNA (purchased from Shanghai BioHub Biotechnology Co., Ltd.), or Cy5 fluorescently labeled Leqvio (purchased from Sangon Biotech (Shanghai) Co., Ltd.) was diluted in a citrate buffer (pH between 4 and 5) to obtain an mRNA aqueous solution. A certain volume of the lipid solution and the mRNA aqueous solution were mixed to prepare liposomes at a total lipid-to-mRNA weight ratio of 15:1. The mixtures were sonicated at 25° C. for 15 minutes (ultrasonic frequency: 40 kHz, ultrasonic power: 800 W). The resulting liposomes were diluted 10-fold with PBS, followed by ultrafiltration using a 300 kDa ultrafiltration tube to remove ethanol. After adjusting the volume with PBS, LNP preparations encapsulating eGFP-mRNA or Fluc-mRNA were obtained, using cationic lipids, DSPC, cholesterol, and DMG-PEG2000 at a molar ratio of 49:10:39.5:1.5.
# The particle size and polydispersity index (PDI) were measured using dynamic light scattering with a Malvern laser diffraction particle size analyzer.
# 10 μL of liposome solution was diluted to 1 mL with RNase-free deionized water and added to the sample cell. Each sample was measured three times. The measurement conditions were as follows: 90° scattering angle, 25° C.
# 293T cells [2] = test: Fluorescence detection of Fluc-mRNA (transfection efficiency) of LNP preparations; format: cell-based; conditions: for Relative light unit (RLU): LNP with 0.3 μg Fluc-mRNA, 96-well plate, 24 hours; for Cellular transfection efficiency, times that of HHMA: vs HHMA; for Cellular transfection efficiency, times that of I-1: vs I-1; for Cellular transfection efficiency, times that of Lipofectamine 3000: vs Lipofectamine 3000; for Cellular transfection efficiency, times that of MC3: vs MC3; for Cellular transfection efficiency, times that of SM-102: vs SM-102; for Cellular transfection efficiency, times that of YK-501: vs YK-501; for Cellular transfection efficiency, times that of YK-506: vs YK-506; for Cellular transfection efficiency, times that of compound 7: vs compound 7
# Experimental: (§2) Cell recovery and passage: 293T cells were recovered and cultured in culture dishes. The cells were passaged until the required number of cells was obtained.
# (§3) Seeding plates: The cells in culture dishes were digested and counted, then seeded in a 96-well plate at 10,000 cells per well and seeded in a 12-well plate at 150,000 cells per well. The cells were cultured overnight until cell adhesion.
# as §1
# (§4) Cell recovery and passage: The method was the same as described in Example 3.
# (§5) Seeding plates: The method was the same as described in Example 3.
# LNP preparations containing 0.3 μg of Fluc-mRNA (with the vector components of the LNP preparations of cationic lipids, DSPC, cholesterol, and DMG-PEG2000 in a molar ratio of 49:10:39.5:1.5, where the cationic lipids are those listed in Table 1) were added to the cell culture medium in a 96-well plate. After 24 hours of continued culture, the corresponding reagents were added according to the instructions in the Gaussia Luciferase Assay Kit. Fluorescence intensity in each well was detected using the IVIS fluorescence detection system. The transfection efficiency of LNP preparations prepared with a series of cationic lipid compounds designed in the present disclosure, as well as cationic lipids from the prior art, including SM-102, HHMA, MC3, compound 7, and I-1, is shown in Table 4.
# 293T cells [3] = test: Cell viability assay (CCK-8) with LNP preparations of Fluc-mRNA; format: cell-based; conditions: for Cell viability: LNP with 1.5 μg Fluc-mRNA, 24 hours, CCK-8
# Experimental: as §2, §3, §1, §4, §5
# LNP preparations containing 1.5 μg of Fluc-mRNA (with the vector components of the LNP preparations of cationic lipids, DSPC, cholesterol, and DMG-PEG2000 in a molar ratio of 49:10:39.5:1.5, where the cationic lipids are those listed in Table 1) were added to the cell culture medium in a 96-well plate. After 24 hours of continued culture, 10 μL of CCK-8 solution was added to each well, and the culture plate was incubated in an incubator for 1 hour.
# female BALB/C mice [4] = test: Expression of delivered mRNA in mice in vivo (IVIS in vivo imaging); conditions: 10 μg Fluc-mRNA via tail vein
# Experimental: LNP preparations containing 10 μg of Fluc-mRNA were injected via the tail vein into female BALB/C mice (4 to 6 weeks old, weighing 17 to 19 g). At specified time points after administration (6 h, 24 h, 48 h, and 7 d), the mice were intraperitoneally injected with fluorescent imaging substrates and allowed to move freely for 5 minutes. The average radiation intensity (corresponding to fluorescence intensity) of proteins expressed by the mRNA delivered by the LNP preparations in the mice in vivo was then detected using the IVIS Spectrum small-animal in vivo imaging system.
# female BALB/C mice [5] = test: Expression of delivered mRNA in different organs of mice (organ imaging); format: in vivo; conditions: for Average radiation intensity of mouse organs: Heart / Average radiation intensity of mouse organs: Kidney / Average radiation intensity of mouse organs: Liver / Average radiation intensity of mouse organs: Lung / Average radiation intensity of mouse organs: Lymph / Average radiation intensity of mouse organs: Spleen: 6 hours after 5 μg Fluc-mRNA subcutaneously; for Expression level of mRNA in the spleen, times that of SM-102 / Expression level of mRNA in the spleen, times that of YK-501 / Expression level of mRNA in the spleen, times that of YK-506: 6 h; for Expression level of mRNA in the spleen, times that of SM-102: vs SM-102; for Expression level of mRNA in the spleen, times that of YK-501: vs YK-501; for Expression level of mRNA in the spleen, times that of YK-506: vs YK-506
# Experimental: LNP preparations containing 5 μg of Fluc-mRNA were subcutaneously injected into female BALB/C mice (4 to 6 weeks old, weighing 17 to 19 g). At specified time points after administration (6 h), the mice were intraperitoneally injected with fluorescent imaging substrates and allowed to move freely for 5 minutes. The average radiation intensity (corresponding to fluorescence intensity) of proteins expressed by the mRNA delivered by the LNP preparations in the mice in vivo was then detected using the IVIS Spectrum small-animal in vivo imaging system. After sampling, the mice were killed by cervical dislocation and dissected, and the internal organs: heart, liver, spleen, lung, kidney, and lymph of mice were accurately isolated. The average radiation intensity (corresponding to fluorescence intensity) of proteins expressed by the mRNA delivered by the LNP preparations in various organs of mice was then detected using the IVIS Spectrum small-animal in vivo imaging system.
Compound,PDI [1] [%],Particle size [1] [nm],Relative light unit (RLU) (293T cells [2]),Cell viability (293T cells [3]) [%],"Average radiation intensity, in vivo imaging (female BALB/C mice [4]; 6 h)","Average radiation intensity, in vivo imaging (female BALB/C mice [4]; 24 h)","Average radiation intensity, in vivo imaging (female BALB/C mice [4]; 48 h)","Average radiation intensity, in vivo imaging (female BALB/C mice [4]; 7 d)",Average radiation intensity of mouse organs: Heart (female BALB/C mice [5]),Average radiation intensity of mouse organs: Kidney (female BALB/C mice [5]),Average radiation intensity of mouse organs: Liver (female BALB/C mice [5]),Average radiation intensity of mouse organs: Lung (female BALB/C mice [5]),Average radiation intensity of mouse organs: Lymph (female BALB/C mice [5]),Average radiation intensity of mouse organs: Spleen (female BALB/C mice [5]),"Cellular transfection efficiency, times that of HHMA (293T cells [2]; Fluc-mRNA LNP) [times]","Cellular transfection efficiency, times that of I-1 (293T cells [2]; Fluc-mRNA LNP) [times]","Cellular transfection efficiency, times that of Lipofectamine 3000 (293T cells [2]; Fluc-mRNA LNP) [times]","Cellular transfection efficiency, times that of MC3 (293T cells [2]; Fluc-mRNA LNP) [times]","Cellular transfection efficiency, times that of SM-102 (293T cells [2]; Fluc-mRNA LNP) [times]","Cellular transfection efficiency, times that of YK-501 (293T cells [2]; Fluc-mRNA LNP) [times]",other results
"CCCCCCCCCCOC(=O)CCCN1CCN(CCCCCC(=O)OCC(CCCCCCC)CCCCCCCC)CC1 (centres unmarked) [YK-501, reference compound]",13.3,144,46243,63,346241,174776,55543,5634,0,0,3334,0,0,14224,–,–,–,–,–,–,–
"CCCCCCCCCCCCSSCCNC(=O)CCN1CCN(CCCCCC(=O)OCCC(CCCCCC)CCCCCC)CC1 [YK-506, reference compound]",12.2,141,654224,90,1801233,257765,82221,34234,0,0,18913,0,0,71213,–,–,–,–,–,–,–
"CCCCCCCCc1ccc(CCC(CO)(CO)NCCCCCCNC(=O)C(CCCCCC)CCCCCCCC)cc1 (centres unmarked) [YK-908, 2-hexyl-N-(6-((1-hydroxy-2-(hydroxymethyl)-4-(4-octylphenyl)butan-2-yl)amino)hexyl) decanamide]",12.2,121,–,89,8918424,1176543,344643,64325,0,0,1423,0,0,168302,5.01,25.01,6.02,53.42,3.55,109.64,"Cellular transfection efficiency, times that of YK-506 (293T cells [2]; Fluc-mRNA LNP): 7.75 times; Cellular transfection efficiency, times that of YK-907 (293T cells [2]; Fluc-mRNA LNP, vs YK-907): 134 times and 134.49 times; Cellular transfection efficiency, times that of compound 7 (293T cells [2]; Fluc-mRNA LNP): 19.69 times; Cell viability higher than that of YK-907 (293T cells [3]; difference vs YK-907): 16%; Expression level of mRNA in the spleen, times that of SM-102 (female BALB/C mice [5]): 6.59 times; Expression level of mRNA in the spleen, times that of YK-501 (female BALB/C mice [5]): 11.83 times; Expression level of mRNA in the spleen, times that of YK-506 (female BALB/C mice [5]): 2.36 times"
"CCCCCCCCCCOC(=O)CCCN(CCCCCC(=O)OCCC(CCCCCC)CCCCCC)CCNC(CO)(CO)CCc1ccc(CCCCCCCC)cc1 [YK-909, 3-hexylnonyl 6-((4-(decyloxy)-4-oxobutyl) (2-((1-hydroxy-2-(hydroxymethyl)-4-(4-octylphenyl)butan-2-yl)amino)ethyl)amino) hexanoate]",11.9,132,–,92,12924543,1322432,576433,87433,0,0,9131,0,0,204435,6.71,33.44,8.05,71.44,4.75,146.62,"Cellular transfection efficiency, times that of YK-506 (293T cells [2]; Fluc-mRNA LNP): 10.36 times; Cellular transfection efficiency, times that of YK-906 (293T cells [2]; Fluc-mRNA LNP, vs YK-906): 246 times and 246.15 times; Cellular transfection efficiency, times that of compound 7 (293T cells [2]; Fluc-mRNA LNP): 26.33 times; Cell viability higher than that of YK-906 (293T cells [3]; difference vs YK-906): 29%; Expression level of mRNA in the spleen, times that of SM-102 (female BALB/C mice [5]): 8.00 times; Expression level of mRNA in the spleen, times that of YK-501 (female BALB/C mice [5]): 14.37 times; Expression level of mRNA in the spleen, times that of YK-506 (female BALB/C mice [5]): 2.87 times"
